From patent US8399487B2, “Pyrazole compounds and uses thereof” (Dart NeuroScience (Cayman) Ltd., priority 2006, dated 2013) come the findings set out here.

“Also recorded” adds a separate entry of the source.

For this assay, the system named is contextual memory in C57BL/6 male mice. The assay is described as follows: Contextual Memory Assay: Fear Conditioning. It is filed as in vivo. The settings on record: I.P. 0.01 mg/kg, injected 20 minutes before training, 2 training trials, tested 24 hours after training (FIG. 1). From the text:
The ability of a compound to modulate cognitive behavior can be evaluated using the following assay to measure memory after contextual fear conditioning.
Contextual Memory Assay: Fear Conditioning
Contextual memory is a form of Pavlovian fear conditioning in which a naïve mouse is placed into a novel chamber (context) containing distinct visual, olfactory and tactile cues. After a couple of minutes of acclimation, the mouse receives a brief, mild electric shock to its feet. From this negative experience, the mouse will remember for months that that chamber is dangerous. When placed back into the same context at some later time after training, the mouse's natural response to danger is to “freeze,” sitting stone still for many seconds. This is similar to what happens to humans when they experience fear. The percent of time during an observation period that the mouse spends frozen represents a quantitative measure (memory score) of its memory of the context. […]
To assess contextual memory, a modified contextual fear conditioning task originally developed for evaluation of memory in CREB knock-out mice was used (Bourtchouladze, R., et. al., Cell, 1994, 79, 59-68). […] 24 hours after training, the mouse was placed into the same training chamber and contextual memory was assessed by scoring freezing behavior (‘freezing’ serves as memory score). […]

With `CN(C)C(=O)c1ccc(-c2cc(C(F)(F)F)n(C)n2)s1` [Compound 162, 5-(1-Methyl-5-trifluoromethyl-1H-pyrazol-3-yl)-thiophene-2-carboxylic acid dimethylamide], the “contextual memory (freezing to context 24 hr after training)” value was “significantly enhanced contextual memory; also recorded: significantly facilitated freezing to context”. The entry for `Cn1nc(-c2ccc(C(=O)N3CCCCC3)s2)cc1C(F)(F)F` [Compound 177, [5-(1-Methyl-5-trifluoromethyl-1H-pyrazol-3-yl)-thiophen-2-yl]-piperidin-1-yl-methanone] is “significantly enhanced contextual memory; also recorded: significantly facilitated freezing to context”.
